Assay results reported in ChEMBL document CHEMBL4823315 (Bioorg Med Chem Lett, 2021).
In brackets after ≈: the same amount, converted by molar mass.

What was measured:
MDA-MB-436 [1] = assay: Antitumor activity against human MDA-MB-436 cells xenografted in mouse assessed as tumor growth inhibition at 75 mg/kg, po qd and measured for 28 days; format: functional; conditions: MDA-MB-436, po, 672 h, time 28 day, read-out: TGI
[2] = target: Serine/threonine-protein kinase AKT (Homo sapiens, UniProt P31751+Q9Y243+P31749); assay: Inhibition of Akt (unknown origin); format: protein assay
[3] = AUC in Beagle dog at 0.5 mg/kg, po; format: ADME, organism-based, Canis lupus familiaris; parameters: dose 0.5 mg/kg; conditions: in vivo
Cytochrome P450 2B6 = target: T1, Cytochrome P450 2B6 (Homo sapiens, UniProt P20813); assay: Inhibition of CYP2B6 (unknown origin); format: ADME
T1 sequence (P20813 whole entry): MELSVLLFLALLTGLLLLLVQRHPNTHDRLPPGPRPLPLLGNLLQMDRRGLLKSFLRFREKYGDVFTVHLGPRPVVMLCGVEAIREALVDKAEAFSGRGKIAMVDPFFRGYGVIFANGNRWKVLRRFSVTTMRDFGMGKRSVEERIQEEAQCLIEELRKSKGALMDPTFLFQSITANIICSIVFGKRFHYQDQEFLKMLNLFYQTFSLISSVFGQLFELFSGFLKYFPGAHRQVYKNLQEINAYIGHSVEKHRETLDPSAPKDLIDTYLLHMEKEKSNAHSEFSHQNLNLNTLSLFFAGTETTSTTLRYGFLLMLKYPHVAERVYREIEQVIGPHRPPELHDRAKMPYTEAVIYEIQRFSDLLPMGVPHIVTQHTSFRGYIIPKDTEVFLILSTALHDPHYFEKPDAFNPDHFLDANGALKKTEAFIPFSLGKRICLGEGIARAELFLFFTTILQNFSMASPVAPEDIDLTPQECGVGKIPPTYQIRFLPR

[4] = AUC in CD-1 mouse at 5 mg/kg, iv; format: ADME, organism-based; parameters: dose 5 mg/kg; conditions: in vivo
Cytochrome P450 1A2 = target: T2, Cytochrome P450 1A2 (Homo sapiens, UniProt P05177); assay: Inhibition of CYP1A2 (unknown origin); format: ADME
T2 sequence (P05177 whole entry): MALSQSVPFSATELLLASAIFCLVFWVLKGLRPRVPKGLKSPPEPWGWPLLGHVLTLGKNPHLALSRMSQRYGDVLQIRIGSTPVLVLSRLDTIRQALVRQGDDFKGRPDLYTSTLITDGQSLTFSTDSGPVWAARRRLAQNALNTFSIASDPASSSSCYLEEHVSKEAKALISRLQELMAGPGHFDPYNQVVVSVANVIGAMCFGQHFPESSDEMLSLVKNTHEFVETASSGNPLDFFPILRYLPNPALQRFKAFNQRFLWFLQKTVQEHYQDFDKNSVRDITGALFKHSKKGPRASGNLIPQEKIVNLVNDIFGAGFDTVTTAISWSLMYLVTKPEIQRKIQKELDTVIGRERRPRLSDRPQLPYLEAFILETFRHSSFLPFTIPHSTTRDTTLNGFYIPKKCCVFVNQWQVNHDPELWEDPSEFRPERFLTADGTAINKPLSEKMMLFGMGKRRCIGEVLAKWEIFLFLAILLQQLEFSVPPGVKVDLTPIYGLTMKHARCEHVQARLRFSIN

Cytochrome P450 2C9 = Cytochrome P450 2C9 (Homo sapiens, UniProt P11712); assay: Inhibition of CYP2C9 (unknown origin); format: ADME
[5] = Inhibition of p70S6K (unknown origin); parameters: species or system Homo sapiens
MDA-MB-436 [6] = assay: Antitumor activity against human MDA-MB-436 cells xenografted in mouse assessed as tumor growth inhibition at 25 mg/kg, po qd and measured for 28 days; format: functional; conditions: MDA-MB-436, po, 672 h, time 28 day, read-out: TGI
[7] = AUC in cynomolgus monkey at 0.5 mg/kg, po; format: ADME, organism-based, Macaca fascicularis; parameters: dose 0.5 mg/kg; conditions: in vivo
[8] = Protein binding in mouse plasma assessed as unbound fraction; format: ADME, cell-free
[9] = AUC in CD-1 mouse at 5 mg/kg, po; format: ADME, organism-based; parameters: dose 5 mg/kg; conditions: in vivo
[10] = Thermodynamic solubility of the compound at pH 7.4; format: physicochemical; conditions: buffer, read-out: Therm_solubility
[11] = Half life in Beagle dog at 0.5 mg/kg, po or 0.2 mg/kg, iv; format: ADME, organism-based, Canis lupus familiaris; conditions: in vivo
[12] = In vivo Inhibition of Akt/p70S6K in mouse xenografted with human MDA-MB-436 cells assessed as reduction in S6 phosphorylation in tumor at 200 mg/kg, po measured after 24 hrs; format: functional; conditions: MDA-MB-436, po
Cytochrome P450 2D6 = Cytochrome P450 2D6 (Homo sapiens, UniProt P10635); assay: Inhibition of CYP2D6 (unknown origin); format: ADME
[13] = Apparent permeability across apical to basal side in human Caco-2 cells; format: ADME, cell-based
[14] = Protein binding in human plasma assessed as unbound fraction; format: ADME, cell-free
[15] = Clearance in Beagle dog at 0.5 mg/kg, po or 0.2 mg/kg, iv; format: ADME, organism-based, Canis lupus familiaris; conditions: in vivo
[16] = Cmax in Beagle dog at 0.5 mg/kg, po; format: ADME, organism-based, Canis lupus familiaris; parameters: route oral, dose 0.5 mg/kg; conditions: in vivo
[17] = Toxicity in mouse xenografted with human MDA-MB-436 cells assessed as loss of body weight at 200 mg/kg, po administered qd measured after 15 days; format: organism-based; conditions: in vivo, 360 h, time 15 day
[18] = Oral bioavailability in cynomolgus monkey at 0.5 mg/kg; format: ADME, organism-based, Macaca fascicularis; conditions: in vivo
[19] = Clearance in Sprague-Dawley rat at 5 mg/kg, po or 5 mg/kg, iv; format: ADME, organism-based; conditions: in vivo
[20] = In vivo Inhibition of Akt/p70S6K in mouse xenografted with human MDA-MB-436 cells assessed as reduction in S6 phosphorylation in tumor at 75 mg/kg, po measured after 24 hrs; format: functional; conditions: MDA-MB-436, po
[21] = Intrinsic clearance in mouse liver microsomes; format: ADME, Microsome; conditions: read-out: CLH
[22] = Half life in Sprague-Dawley rat at 5 mg/kg, po or 5 mg/kg, iv; format: ADME, organism-based; conditions: in vivo
MDA-MB-436 [23] = assay: Antitumor activity against human MDA-MB-436 cells xenografted in mouse assessed as tumor growth inhibition at 200 mg/kg, po qd and measured for 28 days; format: functional; conditions: MDA-MB-436, po, 672 h, time 28 day, read-out: TGI
[24] = Oral bioavailability in Beagle dog at 0.5 mg/kg; format: ADME, organism-based, Canis lupus familiaris; conditions: in vivo
Cytochrome P450 2C19 = Cytochrome P450 2C19 (Homo sapiens, UniProt P33261); assay: Inhibition of CYP2C19 (unknown origin); format: ADME
[25] = Clearance in cynomolgus monkey at 0.5 mg/kg, po or 0.2 mg/kg, iv; format: ADME, organism-based, Macaca fascicularis; conditions: in vivo
[26] = Toxicity in mouse xenografted with human MDA-MB-436 cells assessed as loss of body weight at 25 to 75 mg/kg, po administered qd measured for 28 days; format: organism-based; conditions: in vivo, 672 h, dose 25-75 mg/kg, time 28 day
[27] = Half life in cynomolgus monkey at 0.5 mg/kg, po or 0.2 mg/kg, iv; format: ADME, organism-based, Macaca fascicularis; conditions: in vivo
[28] = Efflux ratio of apparent permeability in human Caco-2 cells; format: ADME, cell-based
[29] = Oral bioavailability in Sprague-Dawley rat at 5 mg/kg; format: ADME, organism-based; conditions: in vivo

Chain of Cytochrome P450 2D6 (P10635 whole entry): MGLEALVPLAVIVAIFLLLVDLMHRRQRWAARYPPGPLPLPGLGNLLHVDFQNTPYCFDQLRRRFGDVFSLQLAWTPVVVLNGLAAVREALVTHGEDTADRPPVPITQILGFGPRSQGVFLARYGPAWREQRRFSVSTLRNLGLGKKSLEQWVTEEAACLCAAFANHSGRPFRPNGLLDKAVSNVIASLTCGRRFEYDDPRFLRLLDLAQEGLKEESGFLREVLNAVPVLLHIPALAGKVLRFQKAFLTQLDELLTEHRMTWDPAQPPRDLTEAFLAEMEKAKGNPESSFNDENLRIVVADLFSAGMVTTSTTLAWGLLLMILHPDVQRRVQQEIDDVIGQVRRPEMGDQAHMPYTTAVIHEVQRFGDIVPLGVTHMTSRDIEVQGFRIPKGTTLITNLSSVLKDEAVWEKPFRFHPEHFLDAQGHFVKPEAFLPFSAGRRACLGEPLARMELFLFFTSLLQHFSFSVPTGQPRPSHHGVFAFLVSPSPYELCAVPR
Chain of Cytochrome P450 2C19 (P33261 whole entry): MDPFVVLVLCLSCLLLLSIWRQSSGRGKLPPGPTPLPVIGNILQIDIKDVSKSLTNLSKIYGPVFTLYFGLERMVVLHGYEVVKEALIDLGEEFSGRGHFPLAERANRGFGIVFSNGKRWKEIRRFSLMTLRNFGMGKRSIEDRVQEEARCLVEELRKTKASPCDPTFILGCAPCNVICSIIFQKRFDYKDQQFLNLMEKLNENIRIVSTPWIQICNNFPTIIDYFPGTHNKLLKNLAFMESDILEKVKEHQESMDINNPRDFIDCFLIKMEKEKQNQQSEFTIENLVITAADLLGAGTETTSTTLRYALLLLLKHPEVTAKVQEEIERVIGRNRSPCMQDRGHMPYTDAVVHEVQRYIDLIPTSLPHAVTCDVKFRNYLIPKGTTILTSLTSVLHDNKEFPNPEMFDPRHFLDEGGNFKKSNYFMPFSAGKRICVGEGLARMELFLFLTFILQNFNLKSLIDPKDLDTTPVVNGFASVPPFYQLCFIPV
Chain of Cytochrome P450 2C9 (P11712 whole entry): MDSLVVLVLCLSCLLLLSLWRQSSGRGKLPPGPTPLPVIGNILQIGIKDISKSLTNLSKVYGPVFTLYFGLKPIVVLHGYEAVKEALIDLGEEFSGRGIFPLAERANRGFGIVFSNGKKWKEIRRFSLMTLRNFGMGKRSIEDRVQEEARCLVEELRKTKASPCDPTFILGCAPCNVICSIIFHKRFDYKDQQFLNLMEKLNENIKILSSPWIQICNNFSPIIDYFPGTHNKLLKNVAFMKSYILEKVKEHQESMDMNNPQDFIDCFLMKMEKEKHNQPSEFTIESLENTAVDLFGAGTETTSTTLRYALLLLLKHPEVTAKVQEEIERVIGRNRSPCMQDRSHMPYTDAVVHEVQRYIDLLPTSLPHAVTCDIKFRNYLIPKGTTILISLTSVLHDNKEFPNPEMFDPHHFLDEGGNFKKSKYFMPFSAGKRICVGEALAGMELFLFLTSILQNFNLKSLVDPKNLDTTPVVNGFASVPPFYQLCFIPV

**Q.** What does the source list for `NC(=O)c1c(N)ncnc1N1CCC(c2nc(-c3ccc(F)c(C(F)(F)F)c3)cn2CCN2CCC2)CC1`?
**A.** inhibition in vivo at 75 mg/kg (MDA-MB-436 [1]): 100%; IC50 [2]: 0.016 µM; AUC [3]: 2370 ng·h/mL; IC50 (Cytochrome P450 2B6): > 20 µM; AUC [4]: 662 ng·h/mL; IC50 (Cytochrome P450 1A2): > 20 µM; IC50 (Cytochrome P450 2C9): > 20 µM; IC50 [5]: 0.003 µM; inhibition in vivo at 25 mg/kg (MDA-MB-436 [6]): 81%; AUC [7]: 82 ng·h/mL; fraction unbound [8]: 0.21; AUC [9]: 417 ng·h/mL; solubility thermodynamic [10]: 4 µg/mL (≈ 7.51 µM); half-life [11]: 19 h; inhibition in vivo at 200 mg/kg [12]: 92%; IC50 (Cytochrome P450 2D6): > 20 µM; Papp A→B [13]: 5.3 ×10⁻⁶ cm/s; fraction unbound [14]: 0.21; clearance [15]: 4.67 mL/min/kg; Cmax [16]: 67.8 ng/mL; Activity [17]: > 5%; bioavailability [18]: 23%; clearance [19]: 312 mL/min/kg; inhibition in vivo at 75 mg/kg [20]: 87%; microsomal CLint [21]: 11 µL/min/mg; half-life [22]: 1.5 h; inhibition in vivo at 200 mg/kg (MDA-MB-436 [23]): 98%; bioavailability [24]: 65%; IC50 (Cytochrome P450 2C19): > 20 µM; clearance [25]: 42.8 mL/min/kg; Activity [26]: < 5%; half-life [27]: 4 h; efflux ratio [28]: 7.9; bioavailability [29]: 17%
